Experimental data from patent publication US8226972B2, “Vaginal delivery of drugs” (FemmePharma Holding Company, Inc., priority 2001, dated 2012).
Counter-ions that a name gives are not always drawn. Like-named read-outs stand apart in the source and are kept apart here.

Tests used:
urgency incontinence = experiment: Example 4: clinical case studies, urgency incontinence / urinary frequency, urgency and nocturia; format: in vivo, human; details: person
Procedure: A person developed urgency incontinence two years after their laparoscopically assisted vaginal hysterectomy. […] However they experienced side effects, such as dry mouth, from the drug. Two weeks later, they started applying oxybutynin (5 mg) into the vagina at bed time, instead of Ditropan XL. […] The patient used vaginal oxybutynin (5 mg) at bed time for 6 months.
A person with a history of chronic pelvic pain and multiple surgical procedures, including pain mapping under conscious sedation and repair of occult bilateral inguinal hernias, developed urinary frequency, urgency and nocturia. Their urine analysis and urine culture were negative for signs of urinary tract infection. Their treatment began with vaginal oxybutynin (5 mg) once daily, at bed time, applied into the vagina.

bladder [1] = experiment: Example 2: bladder contractile response to intra-arterial Ach; format: in vivo, rabbit
From the text: (§1) 16 mature female New Zealand white rabbits were separated into two groups of eight. The rabbits in Group 1 received a high dose oxybutynin formulations; and the rabbits in Group 2 received a low dose oxybutynin formulation. For the high dose, 3 grams (g) of oxybutynin HCl were suspended in 6 g of gel (yielding a concentration of 0.5 g Oxybutynin/g gel) and 3 g of the formulation were placed in the vagina. For the low dose, 0.3 g of oxybutynin HCl were suspended in 6 g of gel (yielding a concentration of 0.05 g Oxybutynin/g gel), and 3 g of the formulation were placed in the vagina.
(§2) Acetylcholine (Ach), a chemical that causes the bladder muscle (detrusor) to squeeze or contract, was injected through the intra-arterial polyethylene catheter in a volume of 0.31-0.39 mL (i.e., 0.1 mL/kg of rabbit), followed by 0.2 mL of heparinized saline. Change of intravesical pressure following the administration of Ach (10^−6 mol/kg) was monitored by the pressure transducer and recorded on a Grass model 7D polygraph. A 10-minute interval passed between Ach administrations, and three flushes of normal saline, in an amount of 0.1 ml/kg of rabbit, were administered. Three responses to Ach were performed at 10-minute intervals to ensure consistent responses.
(§3) After the third Ach administration, the application of the oxybutynin containing gel was administered to the vagina and the responses to Ach were determined at 15-minute intervals for 2 hours. When the response to Ach was reduced, then the time period was extended to 4 hours. At the end of the experiment, a second cystometric curve was generated.
(§4) The protocol described in Example 1 was followed in this experiment, with the following changes. The infusion pump was turned on and, at an infusion rate of 1.42 mL/minute, a cystometric curve was generated.

bladder [2] = experiment: Example 1: bladder pressure response to intra-arterial Ach after vaginal oxybutynin gel; format: in vivo, rabbit; details: for response of the bladder pressure to Ach: high dose (0.5 g Oxybutynin/g gel, 3 g vaginal)
From the text: as §1
(§5) Each rabbit was sedated with an intramuscular injection of ketamine-xylazine ((25 mg ketamine+6 mg xylazine)/kg rabbit) and anesthesia was maintained by isoflurane. After anesthesia, the right external carotid artery was cannulated for blood pressure monitoring. A polyethylene catheter (Intramedic) with an outer diameter of 0.043 inches was inserted through the rabbit's right femoral artery until it reached the lower abdominal aorta (approximately 0.5 cm above the bifurcation of the aorta). A heparizined saline (30 iu/mL) filled polyethylene catheter was used for intra-arterial administration of drugs. To facilitate the delivery of the maximum amount of drugs to the urinary bladder, the rabbit's left femoral artery was ligated.
(§6) The bladder was exposed through a midline incision, and the bladder dome was catheterized with an 8 F catheter for both the monitoring of bladder pressure and for cystometry. The bladder neck-urethra was ligated to prevent micturition or leakage through the urethra. The catheter was connected to an infusion pump (Harvard Apparatus) and a pressure transducer.
as §2, §3

blood pressure [3] = experiment: Example 1: blood pressure response to intra-arterial Ach after vaginal oxybutynin gel; format: in vivo, rabbit
From the text: as §1, §5, §2, §3

bladder [4] = experiment: Example 1: cystometry (bladder capacity, Bladder Compliance); format: in vivo, rabbit; details: high dose (0.5 g/g gel) vaginal
From the text: as §1, §6
Then, the rabbit was taken off of the isoflurane and anesthesia was maintained by ketamine-xylazine so that micturition reflexes could be observed during cystometry. […] Bladder capacity and Bladder Compliance were determined. […]
(§7) After the third Ach administration, the application of the oxybutynin containing gel was administered to the vagina and the responses to Ach were determined at 15-minute intervals for 2 hours. […]

bladder [5] = experiment: Example 2: cystometry at 1.42 mL/minute after vaginal oxybutynin; format: in vivo, rabbit
From the text: as §1, §6
Then, the rabbit was taken off of the isoflurane and anesthesia was maintained by ketamine-xylazine so that micturition reflexes could be observed during cystometry. After 15 minutes, the infusion pump was turned on and at an infusion rate of 1.0 mL/minute, a cystometric curve was generated. The volume at which a micturition reflex was observed was considered to be the functional capacity of the bladder. Bladder capacity and Bladder Compliance were determined. The bladder was then filled to 20 mL.
as §3, §4

blood pressure [6] = experiment: Example 2: vascular response to Ach; format: in vivo, rabbit; details: entire 4-hour period
From the text: as §1
Each rabbit was sedated with an intramuscular injection of ketamine-xylazine ((25 mg ketamine+6 mg xylazine)/kg rabbit) and anesthesia was maintained by isoflurane. […]
Acetylcholine (Ach), a chemical that causes the bladder muscle (detrusor) to squeeze or contract, was injected through the intra-arterial polyethylene catheter in a volume of 0.31-0.39 mL (i.e., 0.1 mL/kg of rabbit), followed by 0.2 mL of heparinized saline. Change of intravesical pressure following the administration of Ach (10^−6 mol/kg) was monitored by the pressure transducer and recorded on a Grass model 7D polygraph. […]
as §7

bladder [7] = experiment: Example 3: cystometry after vaginal or oral oxybutynin; format: in vivo, rabbit; details: for micturition pressure: four hours after administration
Procedure: (§8) 30 mature female New Zealand white rabbits (˜4 kg) were separated into five groups of six rabbits each. Intra arterial administration of Ach was used as a model for hyperreflexia. The effects on intra arterial stimulated contraction were compared with effects on micturition pressure generation.
as §5, with “Central Mutual” for “cm”
as §6, with “tranducer. The right carotid artery was cannulated for monitoring blood pressure. Bladder pressure and blood pressure were recorded on a Grass model 7D Polygraph, and were simultaneously digitized using a Polyview A/D digital analytical system.” for “transducer.”
(§9) Cystometry was performed at 1.4 mL/min until a micturition contraction or a volume of 80 mL was obtained. After the first cystometry, Ach (10^−6 mol/kg) was injected through the intra-arterial polyethylene catheter in a volume of 0.1 ml/kg followed by three washes of 0.2 ml of heparinized saline. The blood pressure and bladder pressure responses were recorded and digitized.
(§10) After three consistent Ach tests, (i.e. responses within 20% of each other) the rabbits in the control group (Group 1) received a vaginal administration of 3 mL of gel (no oxybutynin); the rabbits in the high dose group (Group 2) received a vaginal administration of 1.5 g of oxybutynin suspended in 3 mL of gel; the rabbits in the intermediate dose group (Group 3) received 0.5 g of oxybutynin suspended in 3 mL of gel; the rabbits in the low dose group (Group 4) received a vaginal administration of 0.15 g of oxybutynin suspended in 3 mL of gel; and the rabbits in the oral dose group (Group 5) received 0.5 g of an oral preparation of oxybutynin dissolved in 3 mL of saline.
(§11) Ach was administered at 10 minute intervals for two hours, and then a second cystometry was performed. Ach administration continued at 10 minute intervals for a second two hour period, and then a final cystometry performed.
(§12) Statistical significance was determined using analysis of variance followed by Bonferroni test for individual differences. A p<0.05 was required for significance.

bladder [8] = experiment: Example 3: bladder response to intra-arterial Ach (model for hyperreflexia); format: in vivo, rabbit
Procedure: as §8
as §5, with “Central Mutual” for “cm”
as §6, with “tranducer. The right carotid artery was cannulated for monitoring blood pressure. Bladder pressure and blood pressure were recorded on a Grass model 7D Polygraph, and were simultaneously digitized using a Polyview A/D digital analytical system.” for “transducer.”
as §9, §10, §11, §12

blood pressure [9] = experiment: Example 3: vascular (blood pressure) response to Ach; format: in vivo, rabbit
Procedure: as §8
as §5, with “Central Mutual” for “cm”
as §6, with “tranducer. The right carotid artery was cannulated for monitoring blood pressure. Bladder pressure and blood pressure were recorded on a Grass model 7D Polygraph, and were simultaneously digitized using a Polyview A/D digital analytical system.” for “transducer.”
Cystometry was performed at 1.4 mL/min until a micturition contraction or a volume of 80 mL was obtained. […] The blood pressure and bladder pressure responses were recorded and digitized. […]
Statistical significance was determined using analysis of variance followed by Bonferroni test for individual differences. […]

urge incontinence = details: cited from earlier work
[10] = solid device containing oxybutynin inserted in the vagina of a rabbit (Schröder); cited from earlier work
[11] = low dose (0.05 g/g gel) vaginal, two out of three experiments
[12] = vaginally delivered high dose, overall
[13] = 5 mg into the vagina at bed time
[14] = 5 mg into the vagina twice daily
[15] = vaginal 5 mg at bed time for 6 months
[16] = oxybutynin solution delivered by catheter (Saito)

Cc1ccc(O)c([C@H](CCN(C(C)C)C(C)C)c2ccccc2)c1 [DETROL®, tolterodine tartrate]
improvement of urgency incontinence (urgency incontinence; 2 mg orally twice a day): slight improvement

CCN(CC)CC#CCOC(=O)C(O)(c1ccccc1)C1CCCCC1 (stereo not drawn) [free base form, oxybutynin]
response to Ach (bladder [1]; high dose of the free base form): no effect

CCN(CC)CC#CCOC(=O)C(O)(c1ccccc1)C1CCCCC1 (stereo not drawn) [oxybutynin]
response of the bladder pressure to Ach (bladder [2]; 15 minutes after administration): completely lost | response of the bladder pressure to Ach (bladder [2]; 4 hours after administration): did not increase | reduction of the response of the bladder pressure to Ach (bladder [2]; low dose (0.05 g/g gel) vaginal, one experiment): about 50% | effect on bladder pressure response to Ach (bladder [2]; [11]): no significant effect | contractile response of the bladder to Ach (bladder [2]; [12]): significantly reduced | response of the blood pressure to Ach (blood pressure [3]; high dose (0.5 g/g gel) vaginal, 15 minutes after administration): clear response | response of the blood pressure to Ach (blood pressure [3]; high dose (0.5 g/g gel) vaginal, 4 hours after administration): decreased | effect on blood pressure response to Ach (blood pressure [3]; [11]): no significant effect | response of the blood pressure to Ach (blood pressure [3]; [12]): without having any significant effects | Bladder Compliance (bladder [4]): significant decrease | bladder volume at micturition (bladder [4]): increase | Bladder Compliance (bladder [5]; high dose vaginal): significant decrease | intravesical pressure during cystometry (bladder [5]; high dose vaginal): decreased | intravesical volume at micturition (no micturition reflex up to this volume; cystometry stopped) (bladder [5]; high dose vaginal, before approximately 20 mL): > 80 mL | micturition reflex (bladder [5]; high dose vaginal, up to bladder volume of 80 mL): inhibited | Bladder Compliance (bladder [5]; low dose vaginal): decrease | intravesical pressure during cystometry (at micturition) (bladder [5]; low dose vaginal, after administration (about 15 before), FIG. 4): about 8 cm H2O | pressure at which micturition occurred (bladder [5]; low dose vaginal, after administration (about 16 before), FIG. 3): about 8 cm H2O | magnitude of the micturition reflex (micturition pressure) (bladder [5]; low dose vaginal, after administration (about 22 before)): about 10 cm H2O | intravesical volume at micturition (bladder [5]; low dose vaginal, after treatment, approximately the same as before): about 22 mL | contractile response to intra-arterial Ach (bladder [1]; high dose vaginal, after 4 hours): not restored | contractile response to intra-arterial Ach (bladder [1]; high dose vaginal, at 15 minutes): complete inhibition | contractile response to intra-arterial Ach (bladder [1]; low dose vaginal, at 45 minutes): decreased response | intravesical pressure response to intra-arterial Ach (bladder [1]; low dose vaginal, from 45 minutes for the remaining 2.25 hours): about 7 cm H2O | vascular response to Ach (blood pressure [6]; high dose vaginal): no effect | vascular response to Ach (blood pressure [6]; low dose vaginal): no effect | bladder volume at micturition (bladder [7]; all of the formulations (vaginal low, intermediate, high; oral)): significant increase | Bladder Compliance (bladder [7]; all oxybutynin-treated groups): decreased | decrease of Bladder Compliance (bladder [7]; high dose vaginal): 7.3 fold | micturition reflex (bladder [7]; highest dose): virtually eliminated | decrease of Bladder Compliance (bladder [7]; intermediate dose vaginal): 4.5 fold | decrease of Bladder Compliance (bladder [7]; low dose vaginal): 3.3 fold | intravesical pressure immediately prior to micturition (bladder [7]; oral (0.5 g in 3 mL saline)): significantly reduced | inhibitory effects on the micturition reflex, oral compared with the vaginal route (bladder [7]; oral preparation vs intermediate dose vaginal): significantly greater inhibitory effects | effect on Bladder Compliance and bladder capacity, oral compared with the vaginal route (bladder [7]; oral preparation vs intermediate dose vaginal (equal effects on Ach stimulated contraction)): smaller effect | micturition pressure (bladder [7]; oral): significantly reduced | intravesical pressure immediately prior to micturition (bladder [7]; vaginal high dose (1.5 g in 3 mL gel)): significantly reduced | micturition pressure (bladder [7]; vaginal high dose): significantly reduced | intravesical pressure immediately prior to micturition (bladder [7]; vaginal intermediate dose (0.5 g in 3 mL gel)): significantly reduced | micturition pressure (bladder [7]; vaginal intermediate dose): not significantly affected | intravesical pressure immediately prior to micturition (bladder [7]; vaginal low dose (0.15 g in 3 mL gel)): no significant effect | micturition pressure (bladder [7]; vaginal low dose): not significantly affected | response to Ach compared to the control response (bladder [8]; all preparations of oxybutynin): statistically significant decrease | onset of action (bladder [8]; high dose vaginal): very fast | response to Ach (bladder [8]; high dose vaginal, at 30 minutes, remained active throughout the 4 hour study): completely inhibited | response to acetylcholine (bladder [8]; highest dose): completely eliminated | response to Ach (bladder [8]; intermediate vaginal dose, reached over 90 minutes, remaining for the rest of the experiment): approximately 40 % of control | response to Ach (bladder [8]; low vaginal dose, reached over 90 minutes, remaining for the rest of the experiment): approximately 40 % of control | response to Ach (bladder [8]; oral, reached over 90 minutes, remaining for the rest of the experiment): approximately 40 % of control | vascular response to Ach (blood pressure [9]; any dose, vaginally delivered, entire 4 hour period): no effect | effects on the cardiovascular system (blood pressure [9]; highest dose): only minor effects | blood pressure response to Ach (blood pressure [9]; oral): inhibitory effects | side effects (urgency incontinence; [13]): did not experience any noticeable side effects | urgency symptoms (urgency incontinence; [13]): improved remarkably | improvement of symptoms (urgency incontinence; [14]): remarkable improvement | side effects (urgency incontinence; [14]): no significant side effects | control of symptoms of urgency incontinence (urgency incontinence; [15]): remained effective | side effects (urgency incontinence; [15]): did not suffer from any side effects | improvement of urinary frequency, urgency and nocturia (urgency incontinence; vaginal 5 mg once daily at bed time): significant improvement | side effects (urge incontinence; intravesical administration (Brendler)): no side effects were observed | patients who reported improvement and became totally continent (urge incontinence; intravesical administration, eleven patients with persistent urge incontinence (Brendler)): Ten out of eleven | effectiveness in urinary incontinence (urge incontinence; [16]): effective | side effects (urge incontinence; [16]): did not experience side effects | systemic levels of oxybutynin [10]: effective at reducing the systemic levels
